Measured values as given in PMC4111740, “Ligand-Based Pharmacophore Modeling and Virtual Screening for the Discovery of Novel 17β-Hydroxysteroid Dehydrogenase 2 Inhibitors” (Journal of Medicinal Chemistry, 2014).
“Also recorded” adds a separate entry of the source. Blank lines part the entries; values can stand above or below the molecule they belong to.

What was measured:
17β-HSD1 = target: T1, 17β-HSD1 (Homo sapiens, UniProt P14061); test: 17β-HSD1 activity in HEK-293 cell lysates; assay type: biochemical; details: ratio of IC50 values
T1 construct: expressed in transfected cells; host or cells: HEK-293 (transient, calcium phosphate), lysate
T1 sequence (P14061 1-328): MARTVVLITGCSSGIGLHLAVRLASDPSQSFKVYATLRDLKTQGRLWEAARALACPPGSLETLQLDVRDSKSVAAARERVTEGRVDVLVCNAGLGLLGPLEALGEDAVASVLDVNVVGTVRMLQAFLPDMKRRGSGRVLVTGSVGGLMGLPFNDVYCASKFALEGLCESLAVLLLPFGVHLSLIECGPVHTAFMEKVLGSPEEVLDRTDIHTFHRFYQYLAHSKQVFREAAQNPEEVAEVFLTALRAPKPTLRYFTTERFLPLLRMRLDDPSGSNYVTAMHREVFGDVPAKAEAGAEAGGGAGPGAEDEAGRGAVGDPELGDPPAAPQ
Method: HEK-293 cells were transfected by the calcium phosphate precipitation method with plasmids for human 17β-HSD1, 17β-HSD2, or 11β-HSD2. Cells were cultivated for 48 h, washed with phosphate-buffered saline, and centrifuged for 4 min at 150g. After removal of the supernatants, cell pellets were snap frozen in dry ice and stored at −80 °C until further use.
Lysates of human embryonic kidney cells (HEK-293) expressing either 17β-HSD1 or 17β-HSD2 were incubated for 10 min at 37 °C in TS2 buffer in a final volume of 22 μL containing either solvent (0.2% DMSO/chloroform) or the inhibitor at the respective concentration. N-(3-Methoxyphenyl)-N-methyl-5-m-tolylthiophene-2-carboxamide (compound 19 in ref ([26])) and apigenin[50] were used as positive controls for 17β-HSD1 and 17β-HSD2, respectively, in all experiments. 17β-HSD1 activity was measured in the presence of 190 nM unlabeled estrone, 10 nM radiolabeled estrone, and 500 μM NADPH. In contrast, 17β-HSD2 activity was determined in the presence of 190 nM unlabeled estradiol, 10 nM radiolabeled estradiol, and 500 μM NAD^+. Reactions were stopped after 10 min by adding an excess of unlabeled estradiol and estrone (1:1, 2 mM in methanol). Possible promiscuous enzyme inhibition by aggregate formation of the chemicals was excluded by measuring the inhibition of the enzyme activity by the compounds in the presence of 0.1% Triton X-100.[36] […]

17β-HSD3 = target: T2, 17β-HSD3 (Homo sapiens, UniProt P37058); test: 17β-HSD3 activity in intact transfected HEK-293 cells; assay type: cell-based
T2 construct: expressed in transfected cells; host or cells: HEK-293 (transient, calcium phosphate), intact cells
T2 sequence (P37058 1-310): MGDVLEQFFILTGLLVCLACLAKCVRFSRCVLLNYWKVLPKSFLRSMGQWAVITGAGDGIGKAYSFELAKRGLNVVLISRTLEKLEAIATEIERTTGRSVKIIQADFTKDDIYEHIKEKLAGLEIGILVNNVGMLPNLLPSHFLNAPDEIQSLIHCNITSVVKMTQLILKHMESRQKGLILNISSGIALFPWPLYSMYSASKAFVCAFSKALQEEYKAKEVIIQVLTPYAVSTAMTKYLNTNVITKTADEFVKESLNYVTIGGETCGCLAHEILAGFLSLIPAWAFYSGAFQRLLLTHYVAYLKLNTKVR
Method: (§1) Human embryonic kidney cells (HEK-293) were cultivated in DMEM containing 4.5 g/L glucose, 10% fetal bovine serum, 100 U/mL penicillin, 0.1 mg/mL streptomycin, 1× MEM nonessential amino acids, and 10 mM HEPES buffer, pH 7.4. The cells were incubated at 37 °C until 80% confluency. The cells were transfected using the calcium phosphate method with expression plasmids for 17β-HSD2 and 17β-HSD3. After 24 h, the cells were trypsinized and seeded on poly-L-lysine-coated 96-well plates (15 000 cells/well).
(§2) The inhibitory activities were measured 24 h after seeding as follows: old medium was aspirated and replaced by 30 μL of charcoal-treated DMEM (cDMEM). Ten microliters of inhibitor dissolved in cDMEM into the respective concentration was added, and mixtures were preincubated at 37 °C for 20 min. 17β-HSD2 inhibitory activities were measured in the presence of 190 nM unlabeled estradiol and 10 nM radiolabeled estradiol. N-(3-Methoxyphenyl)-N-methyl-5-m-tolylthiophene-2-carboxamide (compound 19 in ref ([26])) was used as positive control. The reaction mixtures were incubated for 20 min, and the reactions were stopped by adding an excess of estradiol and estrone (1:1, 2 mM in methanol) to the mixture.
17β-HSD3 inhibitory activities were measured in the presence of 190 nM unlabeled androstenedione and 10 nM radiolabeled androstenedione. Benzophenone-1 was used as positive control. The reaction mixtures were incubated for 30 min, and the reactions were stopped by adding an excess of androstenedione and testosterone (1:1, 2 mM in methanol). The steroids were separated by TLC, followed by scintillation counting and calculation of substrate concentration. Data was obtained from three independent measurements.

11β-HSD1 = target: T3, 11β-HSD1 (Homo sapiens, UniProt P28845); test: 11β-HSD1 activity in lysates of stably transfected cells; assay type: biochemical
T3 construct: expressed in transfected cells
T3 sequence (P28845 whole entry): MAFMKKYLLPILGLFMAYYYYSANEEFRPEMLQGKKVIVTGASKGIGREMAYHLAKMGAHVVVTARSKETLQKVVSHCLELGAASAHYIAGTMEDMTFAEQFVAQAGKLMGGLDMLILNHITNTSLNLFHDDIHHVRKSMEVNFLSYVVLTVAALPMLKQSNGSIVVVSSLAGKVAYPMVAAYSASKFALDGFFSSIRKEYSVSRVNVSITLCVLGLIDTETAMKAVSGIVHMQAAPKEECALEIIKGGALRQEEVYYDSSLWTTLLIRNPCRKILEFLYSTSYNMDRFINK
Method: The methods to determine 11β-HSD1 and -2 activity were performed as described previously.[64] Briefly, lysates of stably transfected cells, expressing either 11β-HSD1 or 11β-HSD2, were incubated for 10 min at 37 °C in TS2 buffer in a final volume of 22 μL containing either solvent (0.2% DMSO) or the inhibitor at the respective concentration. The nonselective 11β-HSD inhibitor glycyrrhetinic acid was used as positive control. Activity measurements of 11β-HSD1 were performed with 190 nM unlabeled cortisone, 10 nM radiolabeled cortisone, and 500 μM NADPH. To measure 11β-HSD2 activity, lysates were incubated with 40 nM unlabeled cortisol, 10 nM radiolabeled cortisol, and 500 μM NAD^+. Reactions were stopped after 10 min by adding an excess of unlabeled cortisone and cortisol (1:1, 2 mM in methanol). The steroids were separated by TLC, followed by scintillation counting and calculation of substrate concentration. Data were collected from at least three independent measurements.

17β-HSD2 = target: T4, 17β-HSD2 (Homo sapiens, UniProt P37059); test: 17β-HSD2 activity in intact transfected HEK-293 cells; assay type: cell-based; details: intact HEK-293 cells
T4 construct: expressed in transfected cells; host or cells: HEK-293 (transient, calcium phosphate), lysate
T4 sequence (P37059 1-387): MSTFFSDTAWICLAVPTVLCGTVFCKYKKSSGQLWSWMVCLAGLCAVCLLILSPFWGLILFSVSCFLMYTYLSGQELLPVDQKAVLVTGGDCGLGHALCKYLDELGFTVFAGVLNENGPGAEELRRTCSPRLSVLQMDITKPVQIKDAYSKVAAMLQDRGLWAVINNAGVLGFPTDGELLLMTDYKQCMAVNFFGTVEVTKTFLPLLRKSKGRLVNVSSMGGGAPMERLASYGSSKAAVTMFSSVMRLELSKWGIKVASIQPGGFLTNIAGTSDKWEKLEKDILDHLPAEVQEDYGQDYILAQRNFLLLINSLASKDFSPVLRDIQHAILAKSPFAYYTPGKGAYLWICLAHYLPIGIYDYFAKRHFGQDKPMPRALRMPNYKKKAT
Method: as §1, §2

selectivity: more active toward 17β-HSD2 than 17β-HSD1 (17β-HSD1): 18 fold
17β-HSD3 inhibition (in words) (17β-HSD3; intact cells): weak 17β-HSD3 inhibitors
SMILES: Cc1cc(S(=O)(=O)Nc2cccc(O)c2)c(C)cc1Cl [Compound 22]

17β-HSD3 intact inhibition class (n.i.) (17β-HSD3; rest activity at 20 μM, Table 3): n.i
SMILES: COc1ccc(S(=O)(=O)Nc2cccc(O)c2)c2c1CCCC2 [Compound 23]
11β-HSD1 versus 17β-HSD2 potency (in words) (11β-HSD1; lysates): almost equipotent toward 17β-HSD2 and 11β-HSD1; also recorded: equipotent 17β-HSD2 and 11β-HSD1 inhibitors

selectivity 11β-HSD1 against 17β-HSD2 (11β-HSD1; ratio of IC50 values): 9 fold
selectivity 17β-HSD3 against 17β-HSD2 (17β-HSD3; ratio of IC50 values): 35 fold
SMILES: CC(C)(C)c1ccc(S(=O)(=O)Oc2ccccc2O)cc1 [Compound 12]
17β-HSD2 inhibition in intact cells (in words) (17β-HSD2): concentration-dependently inhibited 17β-HSD2
